This is an account of results in patent US11655239B2 (SHANGHAI INSTITUTE OF MATERIAL MEDICA, CHINESE ACADEMY OF …, priority 2019, dated 2023).

Chain of DDR2 (Q16832 563-849): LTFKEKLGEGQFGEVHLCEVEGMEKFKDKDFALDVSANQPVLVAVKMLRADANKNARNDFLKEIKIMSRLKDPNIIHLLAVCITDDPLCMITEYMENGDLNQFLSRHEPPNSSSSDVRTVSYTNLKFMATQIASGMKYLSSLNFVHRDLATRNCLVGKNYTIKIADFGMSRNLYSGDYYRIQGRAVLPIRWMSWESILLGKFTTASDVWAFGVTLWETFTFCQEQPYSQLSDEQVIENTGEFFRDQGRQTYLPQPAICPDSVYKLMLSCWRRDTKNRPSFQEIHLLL

The first test relates to pulmonary fibrosis induced by bleomycin in mice. In words: mRNA levels of fibrosis-related markers in lung tissue (qRT-PCR). It counts as in vivo, mouse. Conditions: 30 mg/kg. On the procedure: About 30 mg of cryopreserved lung tissue was weighed and homogenized and lysed by adding 200 μL of Trizol (Takara, 9109 #). The fluid after the lysis in the well was collected by the RNA sterilization-grade pipette tip and transferred to the corresponding sterile EP tube. […] of chloroform was added, shaken vigorously for 30 sec, and centrifuged for 15 minutes in a centrifuge at 4° C. at 12000 rpm. The upper aqueous layer was transferred to a new EP tube, an equal volume of isopropanol was used to precipitate the RNA in the aqueous phase, and the tube was allowed to stand at −20° C. for more than 1 hr. And then the tube was centrifuged for 15 min at 4° C. at 12000 rpm, and the supernatant was discarded. 75% ethanol was added to wash the RNA pellet, and then the tube was centrifuged for 15 min at 4° C. at 12000 rpm, and the supernatant was discarded. The tube was placed at room temperature for 10-20 min to dry the RNA pellet. 25-200 μL of RNase-free water was added for dissolution and stored at −80° C.
PrimeScript™ RT Master Mix (Takara, RR036A) was selected for mRNA reverse transcription. Please refer to the instructions for the system. In short, 1 μg of mRNA was added to a 20 μL system, mixed and then kept at a constant temperature in a 37° C. water bath for 15 minutes, and then the enzyme was inactivated at 85° C. for 5 seconds. After centrifugation, double distilled water was used to dilute 10 times.
Q-PCR technology used 2×SYBR Green qPCR Master Mix (B21202, Biomake), and the reaction system could be prepared according to the instruction (10 μL of 2×SYBGreen, 8.8 μL of cDNA template, 1.2 μL of 5 μM primer Mix). The reaction conditions are: pre-denaturation at 95° C. for 5 min, denaturation at 95° C. for 30 sec, annealing at 60° C. for 30 sec, and extension at 72° C. for 30 sec, the number of reaction cycles is 40 cycles.
The experiment used qRT-PCR technology to determine the mRNA levels of fibrosis-related markers in lung tissue.
The experimental method was the same as that for the evaluation of the mRNA levels of inflammatory cytokines.
Turning to `Cc1ccc([C@H](C)NC(=O)c2cccc(C(F)(F)F)c2)cc1-c1ccc2nc(Nc3cnn(C4CC4)c3)ncc2c1` [Compound S11-A], the “reduction of expression (mRNA) of Collagen1-α1” value is “about 50%”, the “reduction of expression (mRNA) of TGF-β1” value is “about 50%” and the “reduction of expression (mRNA) of α-SMA” value is reported as “about 50%”.

A further test has as its target DDR2 (Homo sapiens (Human), UniProt Q16832). The experiment in a line: DDR2 enzyme activity test (ELISA). It counts as biochemical. Conditions: Table 3, chiral synthesis vs resolution; read-out: Molecular activity comparison (inhibitory activity against DDR2 enzyme). On the procedure: The optical rotation and the inhibitory activity against DDR2 enzyme of the compounds S11-A and S11-B obtained by the resolution in Example 12, and the chirally synthesized compounds S11-A′ and S11-B′ in Example 13 were tested (referred to the operation in Effect example 1), and the results are shown in Table 3 below:
Detection method: Enzyme-linked immunosorbent assay (ELISA)
Test receptor tyrosine kinase: DDR2
The kinase used in the experiment was obtained by our laboratory using the insect baculovirus expression system to express and purify the recombinant protein containing the protein kinase region; polyglutamic acid-tyrosine peptide segment [Poly(Glu, Tyr) 4:1] and sodium vanadate were purchased from Sigma; the anti-phosphorylated monoclonal antibody PY99 was purchased from Santa Cruz; horseradish peroxidase labeled goat anti-murine secondary antibody was purchased from Calbiochem; ATP and OPD were purchased from Sangon Biotech (Shanghai) Co., Ltd.; the remaining reagents were purchased from Sinopharm Chemical Reagent Co., Ltd. The reaction ELISA plate (#2592) was purchased from Corning. The full-wavelength microplate reader for experiment reading was a product of Molecular Device, model: SpectraMax 190; the experimental water was distilled water produced by Sinopharm Group.
The compound was centrifuged at 12,000 g for 5 min, and DMSO was added to prepare a 10^-2M stock solution, which was vortexed evenly, then sonicated for 10 min and stored at −40° C. for later use. During the test, the compound was diluted with DMSO from the stock solution to 100 times the test concentration (the DMSO concentration in the system was 1%).
1) Enzyme reaction substrate Poly(Glu, Tyr) 4:1 was diluted to 20 μg/mL with potassium-free PBS (10 mM sodium phosphate buffer, 150 mM NaCl, pH 7.2-7.4), and the microtiter plate was coated with 125 μL/well and placed at 37° C. for 12-16 hours of reaction. The liquid in the well was discard. The plate was washed three times with T-PBS (potassium-free PBS containing 0.1% Tween-20, 200 μL/well), 5 minutes each time. The ELISA plate was dried in an oven at 37° C. for 1 to 2 hours.
2) Reaction buffer (50 mM HEPES pH 7.4, 50 mM MgCl2, 0.5 mM MnCl2, 0.2 mM Na3VO4, 1 mM DTT) diluted ATP solution (49 μL) was added to each well, 1 μL of the compound to be tested was added to each well, and then 50 μL of DDR2 kinase domain recombinant protein diluted in the reaction buffer was added to start the reaction. Two control wells without ATP were set in each experiment. The plate placed on a shaker (100 rpm) at 37° C. for 1 hour of reaction. The liquid in the well was discarded and the plate was washed three times with T-PBS.
3) Antibody PY99 dilution solution (the antibody was diluted 1:500 with T-PBS containing BSA 5 mg/mL) was added at 100 μL/well, and shaken on a shaker at 37° C. for 0.5 hour of reaction. The liquid in the well was discarded and the plate was washed three times with T-PBS.
4) Horseradish peroxidase labeled goat anti-murine secondary antibody dilution solution (the antibody is diluted 1:2000 with T-PBS containing BSA 5 mg/ml) was added at 100 μL/well, and shaken on a shaker at 37° C. for 0.5 hour of reaction. The liquid in the well was discarded and the plate was washed three times with T-PBS.
5) 2 mg/ml of OPD color developing solution [diluted with 0.1 M citric acid-sodium citrate buffer (pH=5.4) containing 0.03% H2O2] was added at 100 μL/well and reacted for 1 to 10 minutes at 25° C. in the dark.
6) 2M H2SO4 was added at 50 μL/well to stop the reaction, and a tunable wavelength microplate reader VERSAmax was used for reading at a wavelength of 490 nm.
The IC50 value was obtained by four-parameter regression using the software that came with the microplate reader.
(In general: In an ELISA, binding on a coated surface is turned into a signal by an enzyme label.)
With `Cc1ccc([C@@H](C)NC(=O)c2cccc(C(F)(F)F)c2)cc1-c1ccc2nc(Nc3cnn(C4CC4)c3)ncc2c1` [Compound S11-B], the IC50 is 14.4 ± 2.1 nM. Same read-out and setting: in the case of `Cc1ccc([C@H](C)NC(=O)c2cccc(C(F)(F)F)c2)cc1-c1ccc2nc(Nc3cnn(C4CC4)c3)ncc2c1` [Compound S11-A] it was 5 ± 0.1 nM.

Staying with this test, now noted: read-out: DDR2 IC50.
As for `Cc1ccc(NC(=O)Nc2cccc(C(F)(F)F)c2)cc1-c1ccc2nc(Nc3cnn(C)c3)ncc2c1` [Compound S1, 1-(4-methyl-3-(2-((1-methyl-1H-pyrazol-4-yl)amino)quinazolin-6-yl)phenyl)-3-(3-(trifluoromethyl)phenyl)urea], the IC50 is 6.6 ± 0.4 nM. `Cc1ccc(C(=O)NC(C)c2cccc(C(F)(F)F)c2)cc1-c1ccc2nc(Nc3cnn(C)c3)ncc2c1` (centres unmarked) [Compound S5, 4-Methyl-3-(2-((1-methyl-1H-pyrazol-4-yl)amino)quinazolin-6-yl)-N-(1-(3-(trifluoromethyl)phenyl)ethyl)benzamide]: the IC50 turned out to be 2.9 ± 0.8 nM.

Take `C[C@@H](NC(=O)c1ccc(C2CC2)c(-c2ccc3cnc(Nc4cnn(C5CC5)c4)nc3c2)c1)c1cccc(C(F)(F)F)c1` [Compound S37]: the IC50 is 13.5 ± 7.2 nM. On the same count and under the same terms, in the case of `Cc1ccc(C(C)NC(=O)c2cccc(C(F)(F)F)c2)cc1-c1ccc2cnc(Nc3cnn(C)c3)nc2c1` (centres unmarked) [Compound S4, N-(1-(4-methyl-3-(2-((1-methyl-1H-pyrazol-4-yl)amino)quinazolin-7-yl)phenyl)ethyl)-3-(Trifluoromethyl)benzamide] it was 4.1 ± 0.1 nM. For `Cn1cc(Nc2ncc3cc(-c4cc(C(=O)Nc5cccc(C(F)(F)F)c5)ccc4C4CC4)ccc3n2)cn1` [Compound S14, 4-cyclopropyl-3-(2-((1-methyl-1H-pyrazol-4-yl)amino)quinazolin-6-yl)-N-(3-(trifluoromethyl)phenyl)benzamide], the IC50 worked out at 4.3 ± 0.7 nM. On the same count and under the same terms, the value for `CC(C)c1ccc(C(=O)Nc2cccc(C(F)(F)F)c2)cc1-c1ccc2nc(Nc3cnn(C)c3)ncc2c1` [Compound S13, 4-isopropyl-3-(2-((1-methyl-1H-pyrazol-4-yl)amino)quinazolin-6-yl)-N-(3-(trifluoromethyl)phenyl)benzamide] was 5.4 ± 0.4 nM; that for `Cc1ccc(C(=O)NCc2cccc(C(F)(F)F)c2)cc1-c1ccc2nc(Nc3cnn(C)c3)ncc2c1` [Compound S7, 4-methyl-3-(2-((1-methyl-1H-pyrazol-4-yl)amino)quinazolin-6-yl)-N-(3-(trifluoromethyl)benzyl)benzamide] was 1.3 ± 0.2 nM; that for `Cc1ccc(C(C)C(=O)Nc2cccc(C(F)(F)F)c2)cc1-c1ccc2nc(Nc3cnn(C4CC4)c3)ncc2c1` (centres unmarked) [Compound S9, 2-(3-(2-((1-cyclopropyl-1H-pyrazol-4-yl)amino)quinazolin-6-yl)-4-methylphenyl)-N-(3-(trifluoromethyl)phenyl)propionamide] was 2.7 ± 0.1 nM. Turning to `Cc1ccc(C(C)NC(=O)c2cccc(C(C)(C)C#N)c2)cc1-c1ccc2nc(Nc3cnn(C4CC4)c3)ncc2c1` (centres unmarked) [Compound S20, 3-(2-cyanopropane-2-yl)-N-(1-(3-(2-((1-cyclopropyl-1H-pyrazol-4-yl)amino)quinazolin-6-yl)-4-methylphenyl)ethyl)benzamide], the IC50 was found to be 5.6 ± 0.3 nM. Still for that read-out and setting: the value for `CC(C(=O)Nc1ccc(C2CC2)c(-c2ccc3nc(Nc4cnn(C5CC5)c4)ncc3c2)c1)c1cccc(C(F)(F)F)c1` (centres unmarked) [Compound S17, N-(4-cyclopropyl-3-(2-((1-cyclopropyl-1H-pyrazol-4-yl)amino)quinazolin-6-yl)phenyl)-2-(3-(trifluoromethyl)phenyl)propionamide] was 1.7 ± 0.3 nM. On the same count and under the same terms, in the case of `Cc1ccc(NC(=O)Nc2cc(C(C)(C)C)nn2-c2ccccc2)cc1-c1ccc2nc(Nc3cnn(C)c3)ncc2c1` [Compound S2, 1-(3-(tert-butyl)-1-phenyl-1H-pyrazol-5-yl)-3-(4-methyl-3-(2-((1-methyl-1H-pyrazol-4-yl)amino)quinazolin-6-yl)phenyl)urea] it was 9.7 ± 0.6 nM; in that of `Cc1ccc(NC(=O)C(C)c2cccc(C(F)(F)F)c2)cc1-c1ccc2nc(Nc3cnn(C)c3)ncc2c1` (centres unmarked) [Compound S8, N-(4-methyl-3-(2-((1-methyl-1H-pyrazol-4-yl)amino)quinazolin-6-yl)phenyl)-2-(3-(trifluoromethyl)phenyl)propionamide], 2.2 ± 0.2 nM.

For the molecule `CCC(NC(=O)c1cccc(C(F)(F)F)c1)c1ccc(C)c(-c2ccc3nc(Nc4cnn(C)c4)ncc3c2)c1` (centres unmarked) [Compound S6, N-(1-(4-methyl-3-(2-((1-methyl-1H-pyrazol-4-yl)amino)quinazolin-6-yl)phenyl)propyl)-3-(trifluoromethyl)benzamide], the IC50 turned out to be 5 ± 0.5 nM. Regarding `Cc1ccc(C(C)NC(=O)Nc2cccc(C(F)(F)F)c2)cc1-c1ccc2nc(Nc3cnn(C)c3)ncc2c1` (centres unmarked) [Compound S27, 1-(1-(4-methyl-3-(2-((1-methyl-1H-pyrazol-4-yl)amino)quinazolin-6-yl)phenyl)ethyl)-3-(3-(trifluoromethyl)phenyl)urea], the IC50 came out at 8.7 ± 1.1 nM.

Staying with this test, now noted: read-out: DDR2 Inhibition rate at 0.1 μM.
Broadly, the inhibition is the drop in the measured response relative to a control, in per cent. `CCN1CCN(Cc2cc(C(C)NC(=O)c3ccc(C4CC4)c(-c4ccc5nc(Nc6cnn(C7CC7)c6)ncc5c4)c3)cc(C(F)(F)F)c2)CC1` (centres unmarked) [Compound S43]: the inhibition at 0.1 µM came to 57.6%. Still for that read-out and setting: the value for `Cc1nc(C(C)NC(=O)c2ccc(C3CC3)c(-c3ccc4nc(Nc5cnn(C6CC6)c5)ncc4c3)c2)cs1` (centres unmarked) [Compound S44] was 72.9%. As for `O=C(NC1CCc2c1cccc2C(F)(F)F)c1ccc(C2CC2)c(-c2ccc3nc(Nc4cnn(C5CC5)c4)ncc3c2)c1` (centres unmarked) [Compound S46], the inhibition at 0.1 µM came to 47.7%. Consider `CC(NC(=O)c1ccc(C2CC2)c(-c2ccc3nc(Nc4cnn(C5CC5)c4)ncc3c2)c1)c1cc(C(F)(F)F)ccn1` (centres unmarked) [Compound S45], for which the inhibition at 0.1 µM turned out to be 68.4%.
